This passage reports Kd and inhibition results from patent publication US20100222396A1 (Novartis AG, priority 2009, published 2010).

Assay [1] concerns the target T1, human orexin 2 receptor (hOx2R) (Homo sapiens, UniProt O43614).
T1 construct: expressed in transfected cells
T1 sequence (O43614 1-444): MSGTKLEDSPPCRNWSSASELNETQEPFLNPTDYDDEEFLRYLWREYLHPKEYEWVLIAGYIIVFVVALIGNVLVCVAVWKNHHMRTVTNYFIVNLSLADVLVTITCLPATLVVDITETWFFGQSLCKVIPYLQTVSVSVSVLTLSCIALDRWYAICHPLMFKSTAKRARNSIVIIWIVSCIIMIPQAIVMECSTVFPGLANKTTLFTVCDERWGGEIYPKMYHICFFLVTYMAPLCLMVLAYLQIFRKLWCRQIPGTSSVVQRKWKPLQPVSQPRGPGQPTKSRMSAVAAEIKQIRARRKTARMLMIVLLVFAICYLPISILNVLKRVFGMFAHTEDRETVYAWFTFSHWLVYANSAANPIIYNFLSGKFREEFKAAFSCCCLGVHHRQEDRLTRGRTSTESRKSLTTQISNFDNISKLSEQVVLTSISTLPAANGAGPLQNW
Kind of assay: Calcium accumulation in cells (FLIPR), antagonism of orexin A, hOx2R. Format: cell-based. The following applies: for Kd: cells expressing human orexin 2 receptor, IC50 vs orexin A converted by Cheng and Prusoff correction. The procedure:
(§1) Cells expressing human orexin 1 or human orexin 2 receptors, were seeded at 8,000 cells/well in 384 well black-walled clear bottom, poly-D-lysine coated plates. After 24 h, the medium was removed and cells were washed once with phosphate buffered saline and serum-deprived overnight in assay buffer (130 mM NaCl, 5.4 mM KCl, 1.8 mM CaCl2, 0.8 mM MgSO4, 0.9 mM NaH2PO4, 25 mM glucose, 20 mM HEPES, pH 7.4) containing bovine serum albumin (1% w/v).
(§2) On the day of the experiment, the cells seeded in black plates were treated with assay buffer containing the Ca^2+ sensitive fluorescent dye Fluo-4-AM (2 μM), and probenecid (0.1 mM). After 1 h plates were washed twice with, and resuspended in, assay buffer containing probenecid (0.1 mM) using a multi plate washer. The plates were placed into a FLIPR II (Fluorometric Imaging Plate Reader, Molecular Devices, Sunnyvale, Calif., USA) and baseline fluorescence (fluorescence light units, FLU) was measured (5 measurements, 2 S each; laser excitation 488 nm at 0.6-1 W, CCD camera exposure 0.4 s) before addition of buffer alone (basal) or containing test compounds (either compound of formula I alone, agonist alone or agonist in the presence of various concentrations of compounds of formula I). Fluorescence measurements were then continued every 1 S for 120 S followed by every 4 S for 240 S.
(§3) The measurements were typically made in two sequences:
(§4) Compounds of formula I were tested usually in a concentration range from 10^−9 M to 10^−5 M.
(§5) In the second round, performed one hour later (to allow for equilibration), Orexin A was tested either in the absence (calibration curves, Orexin A agonist controls) or in the presence of compounds of formula I to determine antagonism.

In assay [2] the target is T2, human orexin 1 receptor (hOx1R) (Homo sapiens, UniProt O43613).
T2 construct: expressed in transfected cells
T2 sequence (O43613 1-425): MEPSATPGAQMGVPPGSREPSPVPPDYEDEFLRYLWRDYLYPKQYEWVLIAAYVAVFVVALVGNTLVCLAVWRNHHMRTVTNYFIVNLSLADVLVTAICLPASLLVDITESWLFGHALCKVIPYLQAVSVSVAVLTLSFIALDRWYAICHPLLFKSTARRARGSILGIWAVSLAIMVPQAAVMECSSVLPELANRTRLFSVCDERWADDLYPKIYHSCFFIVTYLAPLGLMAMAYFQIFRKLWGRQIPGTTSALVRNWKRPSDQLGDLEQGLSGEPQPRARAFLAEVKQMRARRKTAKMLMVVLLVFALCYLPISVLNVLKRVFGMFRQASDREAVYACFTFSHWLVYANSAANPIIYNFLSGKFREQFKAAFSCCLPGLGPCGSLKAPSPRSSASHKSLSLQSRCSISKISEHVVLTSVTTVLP
Kind of assay: Calcium accumulation in cells (FLIPR), antagonism of orexin A, hOx1R. Format: cell-based. The conditions noted are these: for Kd: cells expressing human orexin 1 receptor, IC50 vs orexin A converted by Cheng and Prusoff correction; for inhibition at 10 µM: measured at a concentration of 10 μM of compound (cells marked ^a). The procedure:
as §1, §2, §3, §4, §5

The target in assay [3] is T1, human orexin 2 receptor (hOx2R). Kind of assay: Radioligand binding assay ([125I]orexin A competition), hOx2R. The following applies: CHO or HEK cell membranes, 1 h room temperature. The method, then: (§6) For crude cell membrane preparations, cells (CHO, Chinese hamster ovary or HEK, human embryonic kidney) expressing human orexin 1 or human orexin 2 receptors, were washed with HEPES (10 mM, pH 7.5), scraped off the culture plates with the same buffer, and centrifuged at 4° C. for 5 min at 2500×g. The cell pellet was either stored at −80° C. or used directly. Before the experiments, cell membranes were re-suspended in binding assay buffer (10 mM HEPES, 0.5% (w/v) bovine serum albumin, pH 7.5) by homogenisation with a Polytron homogeniser at 50 Hz for 20 s. Cell membranes were also used as made available by commercial providers.
(§7) In initial saturation experiments (to calculate Bmax), cell homogenates (150 μl) were incubated with 25-300 pM of the radioligand ([^125I]orexin A, 50 μl), 8 concentrations in triplicates in the presence or absence Orexin A (1 μM, 50 μl) to define non specific binding. Bound radioactivity was measured, and data were analysed with the program XLFIT or Graphpad Prism. Protein concentration was determined according to the Bradford/BioRad Protein Assay Kit.
(§8) In competition experiments, cell homogenates (150 μl) were incubated in assay buffer (10 mM HEPES, pH 7.5, 0.5% (w/v) bovine serum albumin, 5 mM MgCl2, […], and tween 0.05%) for 1 h at room temperature with about […] of the radioligand ([^125I]orexin A, 2100 Ci/mmole, 50 μl), and with various concentrations of compounds of the invention (50 μl) in triplicates; non-specific binding was determined in the presence of Orexin A (1 μM). Reactions were terminated by vacuum filtration, 3 washes of ice cold wash buffer (Tris-HCl pH 7.4/10 mM, with NaCl 154 mM). Competition data is expressed in Table 1 as Kd [μM].

In assay [4] the target is T2, human orexin 1 receptor (hOx1R). The assay can be described thus: Radioligand binding assay ([125I]orexin A competition), hOx1R. The conditions noted are these: CHO or HEK cell membranes, 1 h room temperature. The procedure:
as §6, §7, §8

Molecules are shown by their SMILES.

As usually defined, the Kd is the constant that tells how readily two partners part at equilibrium. With `CN(C(=O)c1ccc2[nH]ccc2c1)[C@H](CCNC(=O)c1ccccn1)Cc1ccccc1` [Example 7, 1H-Indole-5-carboxylic acid {(S)-1-benzyl-3-[(pyridine-2-carbonyl)-amino]-propyl}-methyl-amide], the Kd in assay [1] was 40 nM; in assay [2], 16 nM; in assay [3] it was 41 nM; in assay [4], 7 nM.
`CN(C(=O)c1ccccc1)[C@@H](Cc1ccccc1)[C@@H](O)CNC(=O)c1ccccn1` [Example 95, Pyridine-2-carboxylic acid [(2S,3S)-3-(benzoyl-methyl-amino)-2-hydroxy-4-phenyl-butyl]-amide]: the Kd in assay [1] was 140 nM; in assay [2], 3430 nM; in assay [3] it was 59 nM; in assay [4], 3440 nM.
In the case of `Cc1cc(C)cc(C(=O)N(C)[C@H](CCNC(=O)c2ccccn2)Cc2ccccc2)c1` [Example 97, Pyridine-2-carboxylic acid {(S)-3-[(3,5-dimethyl-benzoyl)-methyl-amino]-4-phenyl-butyl}-amide], the Kd worked out at 39 nM in assay [1], 185 nM in assay [2], 30 nM in assay [3] and 46 nM in assay [4].
Taken in the same sequence, the figures for `CN(C(=O)c1cccc2c1OCO2)[C@H](CCNC(=O)c1nc2ccccc2n1C)Cc1ccccc1` [Example 19, 1-Methyl-1H-benzoimidazole-2-carboxylic acid {(8)-3-[(benzo[1,3]dioxole-4-carbonyl)-methyl-amino]-4-phenyl-butyl}-amide] were 114 nM, 1120 nM, 131 nM and 793 nM.
For orientation: inhibition means the relative decrease from the control value, in per cent. As to `CN(C(=O)c1ccccc1)[C@H](CCNC(=O)c1ccccn1)Cc1ccc(F)cc1` [Example 66, Pyridine-2-carboxylic acid [(S)-3-(benzoyl-methyl-amino)-4-(4-fluoro-phenyl)-butyl]-amide], the inhibition at 10 µM in assay [1] (measured at a concentration of 10 μM of compound (cells marked ^a)) worked out at 33%; in assay [2], 0%. Moreover, the Kd in assay [3] is 7120 nM; in assay [4], more than 10000 nM.
For the compound `CCN(C(=O)c1cccc2c1OCO2)[C@H](CCNC(=O)c1ccccn1)Cc1ccccc1` [Example 45, Pyridine-2-carboxylic acid {(S)-3-[(benzo[1,3]dioxole-4-carbonyl)-ethyl-amino]-4-phenyl-butyl}-amide], the Kd in assay [1] came out at 424 nM; in assay [2], 2710 nM; in assay [3] it was 748 nM; in assay [4], 5330 nM.
Taken in the same sequence, the figures for `COc1cc(OC)cc(C(=O)N(C)[C@H](CCNC(=O)c2ccccn2)Cc2ccccc2)c1` [Example 41, Pyridine-2-carboxylic acid {(S)-3-[(3,5-dimethoxy-benzoyl)-methyl-amino]-4-phenyl-butyl}-amide] were 196 nM, 1600 nM, 484 nM and 1730 nM.
In the case of `CN(C(=O)c1ccc2c(c1)OCO2)[C@H](CCNC(=O)c1nccn1C)Cc1ccccc1` [Example 78, 1-Methyl-1H-imidazole-2-carboxylic acid {(S)-3-[(benzo[1,3]dioxole-5-carbonyl)-methyl-amino]-4-phenyl-butyl}-amide], the Kd in assay [1] worked out at 28 nM; in assay [2] it was 1470 nM; in assay [3] it was 24 nM; in assay [4] it was 660 nM.
On to `CN(C(=O)c1cccc2c1OCO2)[C@H](CCNC(=O)c1ccccn1)Cc1ccccc1` [Example 30, Pyridine-2-carboxylic acid {(S)-3-[(benzo[1,3]dioxole-4-carbonyl)-methyl-amino]-4-phenyl-butyl}-amide], for which the Kd in assay [2] was 2190 nM; in assay [4], 1100 nM.
`CN(C(=O)c1ccc2c(c1)OCO2)[C@H](CCNC(=O)c1cccn1C)Cc1ccccc1` [Example 76]: the Kd in assay [1] was 1 nM; in assay [2] it was 376 nM; in assay [3], 4 nM; in assay [4], 94 nM.
In the case of `COc1cc(Cl)cc(C(=O)N(C)[C@H](CCNC(=O)c2cccn2C)Cc2ccccc2)c1` [Example 106, 1-Methyl-1H-pyrrole-2-carboxylic acid {(S)-3-[(3-chloro-5-methoxy-benzoyl)-methyl-amino]-4-phenyl-butyl}-amide], the Kd in assay [2] amounted to 84 nM; in assay [3], 3 nM; in assay [4], 50 nM.
In the case of `CN(C(=O)c1ccc2c(c1)OCO2)[C@@H](CCNC(=O)c1ccccn1)Cc1ccccc1` [Example 47, Pyridine-2-carboxylic acid {(R)-3-[(benzo[1,3]dioxole-5-carbonyl)-methyl-amino]-4-phenyl-butyl}-amide], the Kd in assay [2] amounted to 6290 nM; in assay [4], 12300 nM.
As for `[2H]C([2H])(c1ccccc1)C(CCNC(=O)c1ccccn1)N(C)C(=O)c1ccc2c(c1)OCO2` (stereo not shown) [Example 110, Pyridine-2-carboxylic acid {3-[(benzo[1,3]dioxole-5-carbonyl)-methyl-amino]-4,4-dideutero-4-phenyl-butyl}-amide], the Kd turned out to be 1730 nM in assay [2] and 1380 nM in assay [4].
`CN(C(=O)c1ccc2c(c1)OCO2)[C@H](CCNC(=O)c1ccccn1)Cc1ccccc1` [Example 1, Pyridine-2-carboxylic acid {(S)-3-[(benzo[1,3]dioxole-5-carbonyl)-methyl-amino]-4-phenyl-butyl}-amide]: the Kd in assay [2] worked out at 228 nM; in assay [4], 179 nM.
In the case of `CN(C(=O)c1ccc2c(c1)OCO2)[C@@H](Cc1ccccc1)C(C)(C)CNC(=O)c1ccccn1` [Example 113, Pyridine-2-carboxylic acid {(S)-3-[(benzo[1,3]dioxole-5-carbonyl)-methyl-amino]-2,2-dimethyl-4-phenyl-butyl}-amide], the Kd was determined as 497 nM in assay [1] and 531 nM in assay [3]. Also, the inhibition at 10 µM in assay [2] was 24%.
For the compound `CN(C(=O)c1cccc2c1OCO2)[C@@H](CCNC(=O)c1ccccn1)Cc1ccccc1` [Example 61, Pyridine-2-carboxylic acid {(R)-3-[(benzo[1,3]-dioxole-4-carbonyl)-methyl-amino]-4-phenyl-butyl}-amide], the results for the Kd in assay [2] and in assay [4] were 3830 nM and 4560 nM, respectively.
